The results in this text go back to publication PMC5748155 (Journal of medicinal chemistry, 2017).

Holding throughout (conditions): relative to compound 2
Assay [1] concerns HCV replicon D168V variant. In kind it is cell-based, Hepatitis C virus.
For assay [2], the system named is NS3/4A protease WT and variants. Nature of the assay: Enzyme inhibition assays, statements across WT protease and variants. In kind it is biochemical, Hepatitis C virus.
For the next assay, the target named is GT1a WT NS3/4A Protease (Hepatitis C virus genotype 1a, UniProt P27958). Nature of the assay: Enzyme inhibition assay, wild-type GT1a protease. In kind it is biochemical.
The test system of the next assay is wild-type HCV replicon. In kind it is cell-based, Hepatitis C virus.
Assay [3] concerns HCV replicon D168A variant. In kind it is cell-based, Hepatitis C virus.

`COc1ccc2nc(C)c(O[C@@H]3C[C@H]4C(=O)N[C@]5(C(=O)NS(=O)(=O)C6CC6)C[C@H]5/C=C\CCCCC[C@H](NC(=O)OC(C)(C)C)C(=O)N4C3)nc2c1` [Compound 18b]: the “fold improvement in replicon potency against D168V variant” value in assay [1] is listed as ~ 2 fold.
Take `CCc1nc2ccccc2nc1O[C@@H]1C[C@H]2C(=O)N[C@]3(C(=O)NS(=O)(=O)C4CC4)C[C@H]3/C=C\CCCCC[C@H](NC(=O)OC(C)(C)C)C(=O)N2C1` [Compound 18g]: in assay [2], the “fold decrease in biochemical potency” value is on record as “about 2 fold”.
Consider `CCc1nc2ccc(OC)cc2nc1O[C@@H]1C[C@H]2C(=O)N[C@]3(C(=O)NS(=O)(=O)C4CC4)C[C@H]3/C=C\CCCCC[C@H](NC(=O)OC3CCCC3)C(=O)N2C1` [Compound 22a, Cyclopentyl ((2R,6S,13aS,14aR,16aS,Z)-14a-((cyclopropylsulfonyl)carbamoyl)-2-((3-ethyl-7-methoxyquinoxalin-2-yl)oxy)-5,16-dioxo-1,2,3,5,6,7,8,9,10,11,13a,14,14a,15,16,16a-hexadecahydrocyclopropa[e]pyrrolo[1,2-a][1,4]diazacyclopentadecin-6-yl)carbamate], for which the “fold increase in biochemical potency against WT protease” value at GT1a WT NS3/4A Protease is on record as 2 fold. The “fold enhanced replicon potency against WT HCV” value in the assay with wild-type HCV replicon worked out at 2 fold. Further, the “fold enhanced replicon potency against D168A variant” value in assay [3] is given as 2 fold.
